# Measured values from patent publication US20250136619A1, “HETEROBIFUNCTIONAL COMPOUNDS AND THEIR USE IN TREATING DISEASE” (HALDA THERAPEUTICS OPCO, INC., priority 2021, published 2025).
# Read-outs that look alike come from different tables or passages of the source.
# What was measured:
# [1] = target: BTK (Homo sapiens (Human), UniProt Q06187); assay: KdELECT assay for binding affinity to BTK
# Protocol: Compounds were tested using a KdELECT assay. Kinase-tagged T7 phage strains were prepared in an E. coli host derived from the BL21 strain. E. coli were grown to log-phase and infected with T7 phage and incubated with shaking at 32° C. until lysis. The lysates were centrifuged and filtered to remove cell debris. The remaining kinases were produced in HEK-293 cells and subsequently tagged with DNA for qPCR detection. Streptavidin-coated magnetic beads were treated with biotinylated small molecule ligands for 30 minutes at room temperature to generate affinity resins for kinase assays. The liganded beads were blocked with excess biotin and washed with blocking buffer (SeaBlock (Pierce), 1% BSA, 0.05% Tween 20, 1 mM DTT) to remove unbound ligand and to reduce non-specific binding. Binding reactions were assembled by combining kinases, liganded affinity beads, and test compounds in 1× binding buffer (20% SeaBlock, 0.17×PBS, 0.05% Tween 20, 6 mM DTT). Test compounds were prepared as 111X stocks in 100% DMSO. Kd values were determined using an 11-point 3-fold compound dilution series with three DMSO control points. All compounds for Kd measurements are distributed by acoustic transfer (non-contact dispensing) in 100% DMSO. The compounds were then diluted directly into the assays such that the final concentration of DMSO was 0.9%. All reactions performed in polypropylene 384-well plate. Each was a final volume of 0.02 mL. The assay plates were incubated at room temperature with shaking for 1 hour and the affinity beads were washed with wash buffer (1×PBS, 0.05% Tween 20). The beads were then re-suspended in elution buffer (1×PBS, 0.05% Tween 20, 0.5 μM nonbiotinylated affinity ligand) and incubated at room temperature with shaking for 30 minutes. The kinase concentration in the eluates was measured by qPCR.
# [2] = tested on: HeLa cells; assay: Cellular growth inhibition assay (CellTiter-Glo), HeLa cells; format: cell-based; conditions: Homo sapiens, 72 h, read-out: CTG HELA GI50
# Protocol: (§1) HEK293 and HeLa cells were cultured in DMEM medium supplemented with 10% fetal bovine serum and 1% Penn/Strep. Cells were seeded in white 384-well plates at 500 cells/well in […] complete medium. Following seeding, plates were spun at 300×g for three minutes and cultured at 37° C. with 5% CO2 in a humidified tissue culture incubator.
# (§2) After 24 hours, compounds were titrated in 100% DMSO and diluted in complete cell culture medium. […] of compound/media mixture was added to cells to bring total volume in well to […]. DMSO alone was used as a negative control. Plates were then spun at 300×g for three minutes and stored at 37° C. with 5% CO2 for three days.
# (§3) On Day 0 and Day 3 of compound treatment, cell viability was quantified with CellTiter-Glo 2.0 reagent (Promega). After equilibrating microplates at room temperature for 30 minutes, 25 μL CellTiter-Glo 2.0 reagent was dispensed into each well to bring total volume to […]. Plates were mixed on shaker for 2 minutes at 500 rpm, followed by a 10-minute incubation at room temperature. Following a quick spin, luminescence readings were measured with an En Vision Plate Reader. Data was normalized to DMSO treated Day 0 and Day 3 readings. A four-parameter non-linear regression curve fit was applied to dose-response data in GraphPad Prism data analysis software to determine the half maximal growth inhibitory concentration (GI50) for each compound.
# [3] = tested on: HEK293 cells; assay: Cellular growth inhibition assay (CellTiter-Glo), HEK293 cells; format: cell-based; conditions: Homo sapiens, read-out: CTG HEK293 GI50
# Protocol: as §1, §2, §3
# [4] = HeLa cells, three days of compound treatment, CellTiter-Glo 2.0
# [5] = 72 h, HEK293 cells, three days of compound treatment, CellTiter-Glo 2.0
# BTK, sequence (Q06187 whole entry): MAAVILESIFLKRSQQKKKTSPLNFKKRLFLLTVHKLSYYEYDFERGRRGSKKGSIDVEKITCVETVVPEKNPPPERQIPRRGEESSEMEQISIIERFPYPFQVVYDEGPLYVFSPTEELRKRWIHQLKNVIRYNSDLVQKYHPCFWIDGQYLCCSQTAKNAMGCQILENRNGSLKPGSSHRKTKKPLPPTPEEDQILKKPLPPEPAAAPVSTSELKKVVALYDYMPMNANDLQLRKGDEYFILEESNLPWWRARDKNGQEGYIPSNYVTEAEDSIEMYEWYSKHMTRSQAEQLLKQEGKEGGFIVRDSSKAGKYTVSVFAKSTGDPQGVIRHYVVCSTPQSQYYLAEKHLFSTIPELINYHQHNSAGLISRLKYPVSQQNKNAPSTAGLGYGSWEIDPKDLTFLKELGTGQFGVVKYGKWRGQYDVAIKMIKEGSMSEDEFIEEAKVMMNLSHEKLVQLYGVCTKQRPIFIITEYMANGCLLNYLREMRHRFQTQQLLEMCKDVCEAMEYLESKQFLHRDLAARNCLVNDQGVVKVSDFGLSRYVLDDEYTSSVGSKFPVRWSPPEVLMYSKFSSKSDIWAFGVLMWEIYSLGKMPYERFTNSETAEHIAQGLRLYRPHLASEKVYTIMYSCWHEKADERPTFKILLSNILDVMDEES
Kd [1] [nM],"GI50 [2, 4] [nM]",SMILES,"GI50 [3, 5] [µM]",other results
500 to 2500,,NC(=O)c1c(F)cccc1Nc1nc(Nc2ccc(S(=O)(=O)NCCCCCCCC/C=C/C(=O)N3CCC[C@@H](n4nc(-c5ccc(Oc6ccccc6)cc5)c5c(N)ncnc54)C3)cc2)ncc1Br [Compound I-17],,
50 to 500,,"CC[C@@H]1C(=O)N(C)c2cnc(Nc3ccc(C(=O)NCCCCCCCCOC/C=C/C(=O)N4CCC[C@@H](n5nc(-c6ccc(Oc7ccccc7)cc6)c6c(N)ncnc65)C4)cc3OC)nc2N1C1CCCC1 [Compound I-36, N-[8-[(E)-4-[(3R)-3-[4-amino-3-(4-phenoxyphenyl)pyrazolo[3,4-d]pyrimidin-1-yl]-1-piperidyl]-4-oxo-but-2-enoxy]octyl]-4-[[(7R)-8-cyclopentyl-7-ethyl-5-methyl-6-oxo-7H-pteridin-2-yl]amino]-3-methoxy-benzamide]",,
50 to 500,,"CC[C@@H]1C(=O)N(C)c2cnc(Nc3ccc(C(=O)NCCOCCOCCOC/C=C/C(=O)N4CCC[C@@H](n5nc(-c6ccc(Oc7ccccc7)cc6)c6c(N)ncnc65)C4)cc3OC)nc2N1C1CCCC1 [Compound I-37, N-[2-[2-[2-[(E)-4-[(3R)-3-[4-amino-3-(4-phenoxyphenyl)pyrazolo[3,4-d]pyrimidin-1-yl]-1-piperidyl]-4-oxo-but-2-enoxy]ethoxy]ethoxy]ethyl]-4-[[(7R)-8-cyclopentyl-7-ethyl-5-methyl-6-oxo-7H-pteridin-2-yl]amino]-3-methoxy-benzamide]",,
< 50,,"CC[C@@H]1C(=O)N(C)c2cnc(Nc3ccc(C(=O)NCCOCCOCCOCCOCCOCCOCCOC/C=C/C(=O)N4CCC[C@@H](n5nc(-c6ccc(Oc7ccccc7)cc6)c6c(N)ncnc65)C4)cc3OC)nc2N1C1CCCC1 [Compound I-39, N-[2-[2-[2-[2-[2-[2-[2-[(E)-4-[(3R)-3-[4-amino-3-(4-phenoxyphenyl)pyrazolo[3,4-d]pyrimidin-1-yl]-1-piperidyl]-4-oxo-but-2-enoxy]ethoxy]ethoxy]ethoxy]ethoxy]ethoxy]ethoxy]ethyl]-4-[[(7R)-8-cyclopentyl-7-ethyl-5-methyl-6-oxo-7H-pteridin-2-yl]amino]-3-methoxy-benzamide]",,
,500 to 1500,"CCS(=O)(=O)Nc1ccc(Oc2cccc(OCCOCCOCC(=O)N3CC(=O)N(c4cc(C#N)ccn4)[C@H](C(=O)N(c4cc(F)cc(F)c4)[C@H](C(=O)NC4CC(F)(F)C4)c4ccccc4Cl)C3)c2)c(-c2cn(C)c(=O)c3[nH]ccc23)c1 [Compound I-107, (2S)—N-[(1S)-1-(2-chlorophenyl)-2-[(3,3-difluorocyclobutyl)amino]-2-oxo-ethyl]-1-(4-cyano-2-pyridyl)-N-(3,5-difluorophenyl)-4-[2-[2-[2-[3-[4-(ethylsulfonylamino)-2-(6-methyl-7-oxo-1H-pyrrolo[2,3-c]pyridin-4-yl)phenoxy]phenoxy]ethoxy]ethoxy]acetyl]-6-oxo-piperazine-2-carboxamide]",> 5,
,< 500,"CCS(=O)(=O)Nc1ccc(Oc2cccc(OCCOCCOCCOCCOCC(=O)N3CC(=O)N(c4cc(C#N)ccn4)[C@H](C(=O)N(c4cc(F)cc(F)c4)C(C(=O)NC4CC(F)(F)C4)c4ccccc4Cl)C3)c2)c(-c2cn(C)c(=O)c3[nH]ccc23)c1 (stereo partly drawn) [Compound I-108, (2S)—N-[1-(2-chlorophenyl)-2-[(3,3-difluorocyclobutyl)amino]-2-oxo-ethyl]-1-(4-cyano-2-pyridyl)-N-(3,5-difluorophenyl)-4-[2-[2-[2-[2-[2-[3-[4-(ethylsulfonylamino)-2-(6-methyl-7-oxo-1 H-pyrrolo[2,3-c]pyridin-4-yl)phenoxy]phenoxy]ethoxy]ethoxy]ethoxy]ethoxy]acetyl]-6-oxo-piperazine-2-carboxamide]",> 5,
,500 to 1500,"CN(CCNS(=O)(=O)c1cc(F)cc(N(C(=O)[C@@H]2CCC(=O)N2c2cc(C#N)ccn2)[C@H](C(=O)NC2CC(F)(F)C2)c2ccccc2Cl)c1)C(=O)N1N=C(c2cc(F)ccc2F)SC1(CCCN)c1ccccc1 (stereo partly drawn) [Compound I-112, 2-(3-aminopropyl)-N-[2-[[3-[[(1S)-1-(2-chlorophenyl)-2-[(3,3-difluorocyclobutyl)amino]-2-oxo-ethyl]-[(2S)-1-(4-cyano-2-pyridyl)-5-oxo-pyrrolidine-2-carbonyl]amino]-5-fluoro-phenyl]sulfonylamino]ethyl]-5-(2,5-difluorophenyl)-N-methyl-2-phenyl-1,3,4-thiadiazole-3-carboxamide]",1.5 to 5,

# Continued, compound first:
SMILES,Kd [1] [nM],"GI50 [2, 4] [nM]","GI50 [3, 5] [µM]",other results
"CC(C)(C)c1[nH]cnc1/C=c1\[nH]c(=O)/c(=C/c2ccccc2)n(CCOCCOCC(=O)N2CC(=O)N(c3cc(C#N)ccn3)[C@H](C(=O)N(c3cc(F)cc(F)c3)[C@H](C(=O)NC3CC(F)(F)C3)c3ccccc3Cl)C2)c1=O [Compound I-109, (2S)-4-[2-[2-[2-[(2Z,5Z)-2-benzylidene-5-[(5-tert-butyl-1H-imidazol-4-yl)methylene]-3,6-dioxo-piperazin-1-yl]ethoxy]ethoxy]acetyl]-N-[(1S)-1-(2-chlorophenyl)-2-[(3,3difluorocyclobutyl)amino]-2-oxo-ethyl]-1-(4-cyano-2-pyridyl)-N-(3,5-difluorophenyl)-6-oxo-piperazine-2-carboxamide]",,,,"GI50 ([2]; HeLa): > 5000 nM; GI50 ([3]; HEK293, 72 h): > 5 µM"
"CC(C)(C)c1[nH]cnc1/C=c1\[nH]c(=O)/c(=C/c2ccccc2)n(CCOCCOCCOCCOCC(=O)N2CC(=O)N(c3cc(C#N)ccn3)[C@H](C(=O)N(c3cc(F)cc(F)c3)[C@H](C(=O)NC3CC(F)(F)C3)c3ccccc3Cl)C2)c1=O [Compound I-110, (2S)-4-[2-[2-[2-[2-[2-[(2Z,5Z)-2-benzylidene-5-[(5-tert-butyl-1 H-imidazol-4-yl)methylene]-3,6-dioxo-piperazin-1-yl]ethoxy]ethoxy]ethoxy]ethoxy]acetyl]-N-[(1S)-1-(2-chlorophenyl)-2-[(3,3-difluorocyclobutyl)amino]-2-oxo-ethyl]-1-(4-cyano-2-pyridyl)-N-(3,5-difluorophenyl)-6-oxo-piperazine-2-carboxamide]",,> 5000,> 5,
"C[C@@H](Nc1ccc(C#N)n(C)c1=O)c1cc2cc(Cl)c(C3CC(OCCOCCOCCOCCOCCN(C)C(=O)N4N=C(c5cc(F)ccc5F)SC4(CCCN)c4ccccc4)C3)cc2[nH]c1=O (stereo partly drawn) [Compound I-111, 2-(3-aminopropyl)-N-[2-[2-[2-[2-[2-[3-[6-chloro-3-[(1R)-1-[(6-cyano-1-methyl-2-oxo-3-pyridyl)amino]ethyl]-2-oxo-1H-quinolin-7-yl]cyclobutoxy]ethoxy]ethoxy]ethoxy]ethoxy]ethyl]-5-(2,5-difluorophenyl)-N-methyl-2-phenyl-1,3,4-thiadiazole-3-carboxamide]",,500 to 1500,1.5 to 5,
"CN(CCNS(=O)(=O)c1cc(F)cc(N(C(=O)[C@@H]2CCC(=O)N2c2cc(C#N)ccn2)[C@@H](C(=O)NC2CC(F)(F)C2)c2ccccc2Cl)c1)C(=O)N1N=C(c2cc(F)ccc2F)SC1(CCCN)c1ccccc1 (stereo partly drawn) [Compound I-113, 2-(3-aminopropyl)-N-[2-[[3-[[(1R)-1-(2-chlorophenyl)-2-[(3,3-difluorocyclobutyl)amino]-2-oxo-ethyl]-[(2S)-1-(4-cyano-2-pyridyl)-5-oxo-pyrrolidine-2-carbonyl]amino]-5-fluoro-phenyl]sulfonylamino]ethyl]-5-(2,5-difluorophenyl)-N-methyl-2-phenyl-1,3,4-thiadiazole-3-carboxamide]",,> 5000,> 5,
"CN(CCOCCOCCNS(=O)(=O)c1cc(F)cc(N(C(=O)[C@@H]2CCC(=O)N2c2cc(C#N)ccn2)C(C(=O)NC2CC(F)(F)C2)c2ccccc2Cl)c1)C(=O)N1N=C(c2cc(F)ccc2F)SC1(CCCN)c1ccccc1 (stereo partly drawn) [Compound I-114, 2-(3-aminopropyl)-N-[2-[2-[2-[[3-[[1-(2-chlorophenyl)-2-[(3,3-difluorocyclobutyl)amino]-2-oxo-ethyl]-[(2S)-1-(4-cyano-2-pyridyl)-5-oxo-pyrrolidine-2-carbonyl]amino]-5-fluoro-phenyl]sulfonylamino]ethoxy]ethoxy]ethyl]-5-(2,5-difluorophenyl)-N-methyl-2-phenyl-1,3,4-thiadiazole-3-carboxamide]",,1500 to 5000,> 5,
